Test results as given in article PMC11435058, “Synthesis of New Thiazole-Privileged Chalcones as Tubulin Polymerization Inhibitors with Potential Anticancer Activities” (Pharmaceuticals, 2024).
Where two headings read alike, the source gives them in different places.

How the values were obtained:
CAKI-1 = assay: NCI-60 anticancer screen (SRB; single dose and five doses); settings: Homo sapiens, CAKI-1, 48 h, read-out: Growth Percentage
SNB-75 = assay: as above; settings: Homo sapiens, SNB-75, 48 h, read-out: Growth Percentage
NCI-H322M = assay: as above; settings: Homo sapiens, 48 h, read-out: Growth Percentage
IGROV1 = assay: as above; settings: Homo sapiens, IGROV-1, 48 h, read-out: Growth Percentage
UO-31 = assay: as above; settings: Homo sapiens, UO-31, 48 h, read-out: Growth Percentage
NCI-H522 = assay: as above; settings: Homo sapiens, NCI-H522, 48 h, read-out: Growth Percentage
SK-MEL-2 = assay: as above; settings: Homo sapiens, SK-MEL-2, 48 h, read-out: Growth Percentage
K-562 = assay: as above; settings: Homo sapiens, K562, 48 h, read-out: Growth Percentage
EKVX = assay: as above; settings: Homo sapiens, 48 h, read-out: Growth Percentage
HOP-92 = assay: as above; settings: Homo sapiens, HOP-92, 48 h, read-out: Growth Percentage
HCT-15 = assay: as above; settings: Homo sapiens, HCT-15, 48 h, read-out: Growth Percentage
UACC-62 = assay: as above; settings: Homo sapiens, UACC-62, 48 h, read-out: Growth Percentage
NCI-H226 = assay: as above; settings: Homo sapiens, NCI-H226, 48 h, read-out: Growth Percentage
MCF7 = assay: as above; settings: Homo sapiens, MCF7, 48 h, read-out: Growth Percentage
HS 578T = assay: as above; settings: Homo sapiens, 48 h, read-out: Growth Percentage
HT29 = assay: as above; settings: Homo sapiens, HT-29, 48 h, read-out: Growth Percentage
SF-268 = assay: as above; settings: Homo sapiens, SF-268, 48 h, read-out: Growth Percentage
U251 = assay: as above; settings: Homo sapiens, U-251, 48 h, read-out: Growth Percentage
COLO 205 = assay: as above; settings: Homo sapiens, COLO 205, 48 h, read-out: Growth Percentage
[1] = system: 60 human tumor cell lines panel; assay: NCI-60 anticancer screen, whole panel (means and ranges over the cell lines); format: cell-based; settings: Homo sapiens, 48 h, dose of 10 μM
OVCAR-3 = assay: cells; settings: Homo sapiens, OVCAR-3, 48 h, read-out: Growth Percentage
HCT-116 = assay: NCI-60 anticancer screen (SRB; single dose and five doses); settings: Homo sapiens, HCT-116, 48 h, read-out: Growth Percentage
ACHN = assay: as above; settings: Homo sapiens, 48 h, read-out: Growth Percentage
OVCAR-8 = assay: as above; settings: Homo sapiens, OVCAR-8, 48 h, read-out: Growth Percentage
MDA-MB-468 = assay: as above; format: cell-based, human; settings: Homo sapiens, 48 h; MDA-MB-468; dose of 10 μM; read-out: Growth Percentage
Method: The methodology of the NCI anticancer screening has been described in detail elsewhere (http://www.dtp.nci.nih.gov). For detailed information, see Appendix A in the Supplementary Materials.
4.2.1. Screening of the anticancer activity against a panel of 60 cell Lines.
The methodology of the NCI anticancer screening has been described in detail elsewhere (http://www.dtp.nci.nih.gov.) Briefly, the primary anticancer assay was performed at approximately 60 human tumor cell lines panel derived from nine neoplastic diseases, in accordance with the protocol of the Drug Evaluation Branch, National Cancer Institute, Bethesda. Tested compounds were added to the culture at a single concentration (10μM) and the cultures were incubated for 48 h. End -point determinations were made with a protein binding dye, SRB. Results for each tested compound was reported as the percent of growth of the treated cells when compared to the untreated control cells. The percentage growth was evaluated spectrophotometrically versus controls not treated with test agents. […]

What does the source list for `COc1ccc(/C=C/C(=O)c2sc(=S)[nH]c2C)cc1OC` [2o, (E)-3-(3,4-Dimethoxyphenyl)-1-(4-Methyl-2-Thioxo-2,3-Dihydrothiazol-5-yl)Prop-2-En-1-One]?
activity at 10 µM (CAKI-1): 42%; activity at 10 µM (SNB-75): 58.1%; activity at 10 µM (NCI-H322M): 63.4%; activity at 10 µM (IGROV1): 69.5%; activity at 10 µM (UO-31): 49.2%; activity at 10 µM (NCI-H522): 56.8%; activity at 10 µM (SK-MEL-2): 68.6%; activity at 10 µM (K-562): 32.4%; activity at 10 µM (EKVX): 54.2%; activity at 10 µM (HOP-92): 83.7%; activity at 10 µM (HCT-15): 31.3%; activity at 10 µM (UACC-62): 63.9%; activity at 10 µM (NCI-H226): 80.5%; activity at 10 µM (MCF7): 28.9%; activity at 10 µM (HS 578T): 84.7%; activity at 10 µM (HT29): 97.7%; activity at 10 µM (SF-268): 67.2%; activity at 10 µM (U251): 33.7%; activity at 10 µM (COLO 205): 116%; activity at 10 µM ([1]; mean over the tested cell lines, read-out: Mean growth percentage): 55.1%; activity at 10 µM ([1]; range over the cell lines, read-out: growth percentages against most of the tested cells (lowest to highest)): -0.42 to 126%; activity at 10 µM (OVCAR-3): 3.22%; activity at 10 µM (HCT-116): 34.5%; activity at 10 µM (ACHN): 64.9%; activity at 10 µM (OVCAR-8): 34.3%; activity at 10 µM (MDA-MB-468): -0.42%
